Laboratory results published in ChEMBL document CHEMBL3612057, “Discovery of indolizines containing triazine moiety as new leads for the development of antitumoral agents targeting mitotic events” (2015).
Calls of active or inactive are those of the source. The calls are words filed in the database; no cut-off is given here.

Tests used:
Ovis aries = species on record: Ovis aries; assay: Inhibition of sheep tubulin polymerization at 100 uM by fluorescence assay
UACC-62 = assay: Cytotoxicity against human UACC62 cells assessed as growth inhibition at 10 uM after 24 hrs by SRB assay; type: functional; conditions: UACC-62, 24 h, read-out: GI
RXF 393 = assay: Cytotoxicity against human RXF393 cells assessed as growth inhibition at 10 uM after 24 hrs by SRB assay; type: functional; conditions: RXF 393, 24 h, read-out: GI
HCT-116 = assay: Cytotoxicity against human HCT116 cells assessed as growth inhibition at 10 uM after 24 hrs by SRB assay; type: functional
SR = assay: Cytotoxicity against human SR cells assessed as growth inhibition at 10 uM after 24 hrs by SRB assay; type: functional
TK-10 = assay: Cytotoxicity against human TK10 cells assessed as growth inhibition at 10 uM after 24 hrs by SRB assay; type: functional
ACHN = assay: Cytotoxicity against human ACHN cells assessed as growth inhibition at 10 uM after 24 hrs by SRB assay; type: functional; conditions: read-out: GI
CCRF-CEM = assay: Cytotoxicity against human CCRF-CEM cells assessed as growth inhibition at 10 uM after 24 hrs by SRB assay; type: functional
SF-295 = assay: Cytotoxicity against human SF295 cells assessed as growth inhibition at 10 uM after 24 hrs by SRB assay; type: functional; conditions: SF-295, 24 h, read-out: GI
UACC-257 = assay: Cytotoxicity against human UACC257 cells assessed as growth inhibition at 10 uM after 24 hrs by SRB assay; type: functional; conditions: UACC-257, 24 h, read-out: GI
MDA-MB-231 = assay: Cytotoxicity against human MDA-MB-231 cells assessed as growth inhibition at 10 uM after 24 hrs by SRB assay; type: functional; conditions: MDA-MB-231, 24 h, read-out: GI
RPMI-8226 = assay: Cytotoxicity against human RPMI8226 cells assessed as growth inhibition at 10 uM after 24 hrs by SRB assay; type: functional
T47D = assay: Cytotoxicity against human T47D cells assessed as growth inhibition at 10 uM after 24 hrs by SRB assay; type: functional
Malme-3M = assay: Cytotoxicity against human MALME-3M cells assessed as growth inhibition at 10 uM after 24 hrs by SRB assay; type: functional; conditions: read-out: GI
U-251 = assay: Cytotoxicity against human U251 cells assessed as growth inhibition at 10 uM after 24 hrs by SRB assay; type: functional; conditions: U-251, 24 h, read-out: GI
NCI-H226 = assay: Cytotoxicity against human NCI-H226 cells assessed as growth inhibition at 10 uM after 24 hrs by SRB assay; type: functional
[1] = Cytotoxicity against human Hs578T cells assessed as growth inhibition at 10 uM after 24 hrs by SRB assay; type: functional; conditions: Hs-578T, read-out: GI
HOP-62 = assay: Cytotoxicity against human HOP62 cells assessed as growth inhibition at 10 uM after 24 hrs by SRB assay; type: functional; conditions: HOP-62, 24 h, read-out: GI
SF-539 = assay: Cytotoxicity against human SF539 cells assessed as growth inhibition at 10 uM after 24 hrs by SRB assay; type: functional; conditions: SF-539, 24 h, read-out: GI
NCI-H460 = assay: Cytotoxicity against human NCI-H460 cells assessed as growth inhibition at 10 uM after 24 hrs by SRB assay; type: functional
HOP-92 = assay: Cytotoxicity against human HOP92 cells assessed as growth inhibition at 10 uM after 24 hrs by SRB assay; type: functional; conditions: HOP-92, 24 h, read-out: GI
786-0 = assay: Cytotoxicity against human 786-0 cells assessed as growth inhibition at 10 uM after 24 hrs by SRB assay; type: functional; conditions: 786-0, 24 h, read-out: GI
SK-MEL-5 = assay: Cytotoxicity against human SK-MEL-5 cells assessed as growth inhibition at 10 uM after 24 hrs by SRB assay; type: functional
PC-3 = assay: Cytotoxicity against human PC3 cells assessed as growth inhibition at 10 uM after 24 hrs by SRB assay; type: functional
SK-MEL-28 = assay: Cytotoxicity against human SK-MEL-28 cells assessed as growth inhibition at 10 uM after 24 hrs by SRB assay; type: functional
HL-60(TB) = assay: Cytotoxicity against human HL-60(TB) cells assessed as growth inhibition at 10 uM after 24 hrs by SRB assay; type: functional
A549 = assay: Cytotoxicity against human A549 cells assessed as growth inhibition at 10 uM after 24 hrs by SRB assay; type: functional; conditions: A549, 24 h, read-out: GI
MDA-MB-435 = assay: Cytotoxicity against human MDA-MB-435 cells assessed as growth inhibition at 10 uM after 24 hrs by SRB assay; type: functional
NCI-H522 = assay: Cytotoxicity against human NCI-H522 cells assessed as growth inhibition at 10 uM after 24 hrs by SRB assay; type: functional; conditions: NCI-H522, 24 h, read-out: GI
SNB-75 = assay: Cytotoxicity against human SNB75 cells assessed as growth inhibition at 10 uM after 24 hrs by SRB assay; type: functional; conditions: SNB-75, 24 h, read-out: GI
OVCAR-3 = assay: Cytotoxicity against human OVCAR3 cells assessed as growth inhibition at 10 uM after 24 hrs by SRB assay; type: functional
SK-OV-3 = assay: Cytotoxicity against human SKOV3 cells assessed as growth inhibition at 10 uM after 24 hrs by SRB assay; type: functional; conditions: SK-OV-3, 24 h, read-out: GI
K562 = assay: Cytotoxicity against human K562 cells assessed as growth inhibition at 10 uM after 24 hrs by SRB assay; type: functional
MCF7 = assay: Cytotoxicity against human MCF7 cells assessed as growth inhibition at 10 uM after 24 hrs by SRB assay; type: functional
CAKI-1 = assay: Cytotoxicity against human CAKI-1 cells assessed as growth inhibition at 10 uM after 24 hrs by SRB assay; type: functional
OVCAR-4 = assay: Cytotoxicity against human OVCAR4 cells assessed as growth inhibition at 10 uM after 24 hrs by SRB assay; type: functional
OVCAR-8 = assay: Cytotoxicity against human OVCAR8 cells assessed as growth inhibition at 10 uM after 24 hrs by SRB assay; type: functional; conditions: OVCAR-8, 24 h, read-out: GI

With `COc1nc(OC)nc(-c2cc(C(=O)c3ccc(F)cc3)n3ccccc23)n1` the inhibition (Ovis aries) was “inactive”.
With `COc1nc(OC)nc(-c2cc(C(=O)c3ccc(C#N)cc3)n3ccccc23)n1` the inhibition (Ovis aries) was “inactive”.
In the case of `COc1nc(OC)nc(-c2cc(C(=O)c3ccc(C)cc3)n3ccc(C#N)cc23)n1`, the inhibition of growth at 10 µM (UACC-62) is reported as 14%, the inhibition of growth at 10 µM (RXF 393) is reported as 52% and the “growth inhibition (GI)” value (HCT-116) is reported as “inactive”. The “growth inhibition (GI)” value (SR) was “inactive”, the “growth inhibition (GI)” value (TK-10) was “inactive” and the inhibition of growth at 10 µM (ACHN) was 15%. For the same compound, the “growth inhibition (GI)” value (CCRF-CEM) was “inactive”, the inhibition of growth at 10 µM (SF-295) was 47% and the inhibition of growth at 10 µM (UACC-257) was 16%. For the same compound, the inhibition of growth at 10 µM (MDA-MB-231) was 39%, the “growth inhibition (GI)” value (RPMI-8226) was “inactive” and the “growth inhibition (GI)” value (T47D) was “inactive”. The inhibition (Ovis aries) was “inactive”, the inhibition of growth at 10 µM (Malme-3M) was 17% and the inhibition of growth at 10 µM (U-251) was 56%. The “growth inhibition (GI)” value (NCI-H226) was “inactive”, the inhibition of growth at 10 µM [1] was 42% and the inhibition of growth at 10 µM (HOP-62) was 60%. For the same compound, the inhibition of growth at 10 µM (SF-539) was 42%, the “growth inhibition (GI)” value (NCI-H460) was “inactive” and the inhibition of growth at 10 µM (HOP-92) was 11%. For the same compound, the inhibition of growth at 10 µM (786-0) was 40%, the “growth inhibition (GI)” value (SK-MEL-5) was “inactive” and the “growth inhibition (GI)” value (PC-3) was “inactive”. For the same compound, the “growth inhibition (GI)” value (SK-MEL-28) was “inactive”, the “growth inhibition (GI)” value (HL-60(TB)) was “inactive” and the inhibition of growth at 10 µM (A549) was 11%. The “growth inhibition (GI)” value (MDA-MB-435) was “inactive”, the inhibition of growth at 10 µM (NCI-H522) was 21% and the inhibition of growth at 10 µM (SNB-75) was -14%. For the same compound, the “growth inhibition (GI)” value (OVCAR-3) was “inactive”, the inhibition of growth at 10 µM (SK-OV-3) was 42% and the “growth inhibition (GI)” value (K562) was “inactive”. For the same compound, the “growth inhibition (GI)” value (MCF7) was “inactive”, the “growth inhibition (GI)” value (CAKI-1) was “inactive” and the “growth inhibition (GI)” value (OVCAR-4) was “inactive”. For the same compound, the inhibition of growth at 10 µM (OVCAR-8) was 14%.
In the case of `COc1nc(OC)nc(-c2cc(C(=O)c3ccc(Br)cc3)n3cc(C)cc(C)c23)n1`, the inhibition (Ovis aries) is reported as “inactive”.
In the case of `COc1nc(OC)nc(-c2cc(C(=O)c3ccc(-c4ccccc4)cc3)n3ccccc23)n1`, the inhibition (Ovis aries) is reported as “inactive”.
